The NIST ThermoML archive (doi:10.1016/j.tca.2015.01.022)

Experiment: molar heat capacity at constant pressure
Conditions: 101.33 kPa, Small (less than 1 g) adiabatic calorimetry

CCCCn1cc[n+](C)c1.F[B-](F)(F)F [1-butyl-3-methylimidazolium tetrafluoroborate]
Conditions	molar heat capacity at constant pressure [J/K/mol]
5 K, Glass	1.47
5.16 K, Glass	1.62
5.39 K, Glass	1.822
5.67 K, Glass	2.094
5.96 K, Glass	2.397
6.28 K, Glass	2.762
6.64 K, Glass	3.192
7 K, Glass	3.657
7.36 K, Glass	4.172
7.73 K, Glass	4.709
8.11 K, Glass	5.283
8.49 K, Glass	5.896
8.87 K, Glass	6.54
9.26 K, Glass	7.211
9.64 K, Glass	7.915
10 K, Glass	8.59
10.03 K, Glass	8.641
10.52 K, Glass	9.597
11.13 K, Glass	10.83
11.75 K, Glass	12.13
12.36 K, Glass	13.44
12.97 K, Glass	14.81
13.59 K, Glass	16.22
14.22 K, Glass	17.7
14.85 K, Glass	19.2
15 K, Glass	19.58
15.58 K, Glass	20.98
16.44 K, Glass	23.16
17.29 K, Glass	25.28
18.15 K, Glass	27.41
19.01 K, Glass	29.55
19.88 K, Glass	31.75
20 K, Glass	32.08
21.08 K, Glass	34.8
22.63 K, Glass	38.75
24.2 K, Glass	42.72
25 K, Glass	44.7
25.76 K, Glass	46.64
27.21 K, Glass	50.17
28.7 K, Glass	53.74
30 K, Glass	56.8
30.28 K, Glass	57.41
32.02 K, Glass	61.38
33.93 K, Glass	65.51
35 K, Glass	67.76
35.84 K, Glass	69.47
37.75 K, Glass	73.26
39.66 K, Glass	76.94
40 K, Glass	77.68
41.67 K, Glass	80.75
43.78 K, Glass	84.66
45 K, Glass	86.86
45.89 K, Glass	88.43
48 K, Glass	92.13
50 K, Glass	95.33
50.12 K, Glass	95.61
52.24 K, Glass	99
54.36 K, Glass	102.2
56.48 K, Glass	105.3
58.61 K, Glass	108.4
60 K, Glass	110.5
60.75 K, Glass	111.5
62.88 K, Glass	114.5
65.01 K, Glass	117.4
67.14 K, Glass	120.3
69.28 K, Glass	123.1
70 K, Glass	124.2
71.52 K, Glass	126
73.86 K, Glass	129.1
76.21 K, Glass	132.1
78.57 K, Glass	135.1
78.59 K, Glass	135
80 K, Glass	136.7
80.92 K, Glass	137.8
81.08 K, Glass	138.2
83.28 K, Glass	140.7
83.48 K, Glass	140.7
85.56 K, Glass	143.1
85.91 K, Glass	143.3
88.1 K, Glass	145.9
88.36 K, Glass	146.1
90 K, Glass	148.1
90.56 K, Glass	148.7
90.83 K, Glass	148.8
93.04 K, Glass	151.5
93.31 K, Glass	151.6
95.54 K, Glass	154.3
95.81 K, Glass	154.3
98.06 K, Glass	156.9
98.33 K, Glass	156.9
100 K, Glass	158.7
100.58 K, Glass	159.4
100.87 K, Glass	159.6
103.12 K, Glass	162
103.41 K, Glass	162.3
105.68 K, Glass	164.7
105.97 K, Glass	164.9
108.24 K, Glass	167.2
108.53 K, Glass	167.4
110 K, Glass	169
110.81 K, Glass	169.8
111.11 K, Glass	170.1
113.39 K, Glass	172.7
113.69 K, Glass	172.7
115.97 K, Glass	175.1
116.27 K, Glass	175.4
118.56 K, Glass	177.8
118.87 K, Glass	178
120 K, Glass	179.2
121.16 K, Glass	180.5
121.47 K, Glass	180.7
123.76 K, Glass	183.1
124.08 K, Glass	183.2
126.37 K, Glass	185.5
126.68 K, Glass	185.8
128.98 K, Glass	188.1
129.3 K, Glass	188.4
130 K, Glass	189.1
131.59 K, Glass	190.7
131.91 K, Glass	191
133.42 K, Glass	192.4
134.2 K, Glass	193.3
134.53 K, Glass	193.6
136.1 K, Glass	195
136.82 K, Glass	195.9
137.15 K, Glass	196.2
138.71 K, Glass	197.7
139.43 K, Glass	198.3
139.77 K, Glass	198.7
140 K, Glass	198.9
141.33 K, Glass	200.2
142.05 K, Glass	201.1
142.38 K, Glass	201.3
143.94 K, Glass	202.8
144.67 K, Glass	203.6
145 K, Glass	203.9
146.55 K, Glass	205.4
147.29 K, Glass	206.3
147.63 K, Glass	206.5
149.17 K, Glass	208
149.9 K, Glass	209.1
150 K, Glass	208.9
150.24 K, Glass	209.1
151.78 K, Glass	210.6
152.52 K, Glass	211.6
152.86 K, Glass	211.8
154.39 K, Glass	213.3
155.13 K, Glass	214.2
155.48 K, Glass	214.4
157 K, Glass	216
157.74 K, Glass	216.9
158.09 K, Glass	217.2
159.61 K, Glass	218.7
160 K, Glass	219.3
160.35 K, Glass	219.7
160.71 K, Glass	219.9
162.21 K, Glass	221.6
162.96 K, Glass	222.4
163.32 K, Glass	222.8
164.8 K, Glass	224.5
165.57 K, Glass	225.6
165.93 K, Glass	225.7
167.4 K, Glass	227.5
168.19 K, Glass	228.6
168.53 K, Glass	228.9
169.99 K, Glass	230.8
170 K, Glass	230.8
170.79 K, Glass	232
171.13 K, Glass	232.5
172.58 K, Glass	234.6
173.37 K, Glass	236
173.73 K, Glass	236.7
175.18 K, Glass	239.5
175.96 K, Glass	241.5
176.31 K, Glass	242.4
177.73 K, Glass	247
178.51 K, Glass	249.7
178.86 K, Glass	251.9
180 K, Glass	260.4
180.22 K, Glass	262.1
180.97 K, Glass	268.6
181.29 K, Liquid	276.1
182.48 K, Liquid	309.1
183.17 K, Liquid	322.3
183.45 K, Liquid	329.7
184.59 K, Liquid	329.2
185.3 K, Liquid	329.5
185.6 K, Liquid	330
186.77 K, Liquid	331
187.48 K, Liquid	331.6
187.79 K, Liquid	331.2
188.95 K, Liquid	331.4
189.98 K, Liquid	331.5
190 K, Liquid	331.5
191.13 K, Liquid	331.6
192.17 K, Liquid	331.7
193.32 K, Liquid	331.9
194.37 K, Liquid	332
195.51 K, Liquid	332.2
196.58 K, Liquid	332.3
197.71 K, Liquid	332.5
198.79 K, Liquid	332.6
199.91 K, Liquid	332.8
200 K, Liquid	333
202.13 K, Liquid	333.2
204.34 K, Liquid	333.6
206.55 K, Liquid	334
208.77 K, Liquid	334.5
210 K, Liquid	335.1
210.99 K, Liquid	334.9
213.22 K, Liquid	335.4
215.44 K, Liquid	335.9
220 K, Liquid	337.5
230 K, Liquid	340.4
240 K, Liquid	343.6
250 K, Liquid	347.2
260 K, Liquid	350.9
263.82 K, Liquid	351.8
266.12 K, Liquid	352.8
268.4 K, Liquid	353.7
270 K, Liquid	354.9
270.68 K, Liquid	354.6
272.95 K, Liquid	355.5
275.23 K, Liquid	356.5
277.5 K, Liquid	357.6
279.78 K, Liquid	358.5
280 K, Liquid	359
282.05 K, Liquid	359.5
284.33 K, Liquid	360.3
286.6 K, Liquid	361.3
288.87 K, Liquid	362.4
290 K, Liquid	363.2
291.14 K, Liquid	363.3
293.42 K, Liquid	364.3
295.69 K, Liquid	365.2
297.95 K, Liquid	366.4
298.15 K, Liquid	366.7
300 K, Liquid	367.6
300.22 K, Liquid	367.4
302.49 K, Liquid	368.5
304.75 K, Liquid	369.6
307.02 K, Liquid	370.7
309.28 K, Liquid	371.7
310 K, Liquid	372.3
311.54 K, Liquid	372.7
313.8 K, Liquid	373.8
316.06 K, Liquid	375
318.32 K, Liquid	376.1
320 K, Liquid	377
320.58 K, Liquid	377
322.83 K, Liquid	378
325.09 K, Liquid	379.3
327.34 K, Liquid	380.1
329.59 K, Liquid	381.1
330 K, Liquid	381.7
331.84 K, Liquid	382.2
334.09 K, Liquid	383.3
336.34 K, Liquid	384.3
338.58 K, Liquid	385.6
340 K, Liquid	386.4
340.83 K, Liquid	386.7
343.08 K, Liquid	387.6
345.32 K, Liquid	388.7
347.57 K, Liquid	389.7
349.81 K, Liquid	390.7
350 K, Liquid	391.1
352.05 K, Liquid	391.7
354.29 K, Liquid	392.8
356.53 K, Liquid	393.9
358.76 K, Liquid	394.9
360 K, Liquid	395.9
361 K, Liquid	395.8
363.23 K, Liquid	397.1
365.46 K, Liquid	398
367.7 K, Liquid	399
370 K, Liquid	400.6
